The structures appear in SMILES notation.

In series [1] the test system is rats (Sprague-Dawley, male). To be noted: rat, in vivo. The protocol: Veratridine was injected intra-plantar at 30 micrograms.
Known preclinical and clinical analgesics were tested to see if they could prevent veratridine-induced behaviors.

For a further series, the system named is male mice (CD1 strain). To be noted: mouse, in vivo.
The next series addresses NaV1.9 (Rattus norvegicus, UniProt O88457). To be noted: cited from earlier work.
A further series deals with NaV1.8 (Rattus norvegicus, UniProt Q62968). The conditions noted are these: cited from earlier work.
A further series has as its target NaV1.5 (Rattus norvegicus, UniProt P15389). To be noted: cited from earlier work.
Another series has as its target T1, hNaV1.7 (Homo sapiens, UniProt Q15858).
T1 construct: expressed in transfected cells; host or cells: HEK 293
The class given is cell-based.

T1 sequence (Q15858 whole entry): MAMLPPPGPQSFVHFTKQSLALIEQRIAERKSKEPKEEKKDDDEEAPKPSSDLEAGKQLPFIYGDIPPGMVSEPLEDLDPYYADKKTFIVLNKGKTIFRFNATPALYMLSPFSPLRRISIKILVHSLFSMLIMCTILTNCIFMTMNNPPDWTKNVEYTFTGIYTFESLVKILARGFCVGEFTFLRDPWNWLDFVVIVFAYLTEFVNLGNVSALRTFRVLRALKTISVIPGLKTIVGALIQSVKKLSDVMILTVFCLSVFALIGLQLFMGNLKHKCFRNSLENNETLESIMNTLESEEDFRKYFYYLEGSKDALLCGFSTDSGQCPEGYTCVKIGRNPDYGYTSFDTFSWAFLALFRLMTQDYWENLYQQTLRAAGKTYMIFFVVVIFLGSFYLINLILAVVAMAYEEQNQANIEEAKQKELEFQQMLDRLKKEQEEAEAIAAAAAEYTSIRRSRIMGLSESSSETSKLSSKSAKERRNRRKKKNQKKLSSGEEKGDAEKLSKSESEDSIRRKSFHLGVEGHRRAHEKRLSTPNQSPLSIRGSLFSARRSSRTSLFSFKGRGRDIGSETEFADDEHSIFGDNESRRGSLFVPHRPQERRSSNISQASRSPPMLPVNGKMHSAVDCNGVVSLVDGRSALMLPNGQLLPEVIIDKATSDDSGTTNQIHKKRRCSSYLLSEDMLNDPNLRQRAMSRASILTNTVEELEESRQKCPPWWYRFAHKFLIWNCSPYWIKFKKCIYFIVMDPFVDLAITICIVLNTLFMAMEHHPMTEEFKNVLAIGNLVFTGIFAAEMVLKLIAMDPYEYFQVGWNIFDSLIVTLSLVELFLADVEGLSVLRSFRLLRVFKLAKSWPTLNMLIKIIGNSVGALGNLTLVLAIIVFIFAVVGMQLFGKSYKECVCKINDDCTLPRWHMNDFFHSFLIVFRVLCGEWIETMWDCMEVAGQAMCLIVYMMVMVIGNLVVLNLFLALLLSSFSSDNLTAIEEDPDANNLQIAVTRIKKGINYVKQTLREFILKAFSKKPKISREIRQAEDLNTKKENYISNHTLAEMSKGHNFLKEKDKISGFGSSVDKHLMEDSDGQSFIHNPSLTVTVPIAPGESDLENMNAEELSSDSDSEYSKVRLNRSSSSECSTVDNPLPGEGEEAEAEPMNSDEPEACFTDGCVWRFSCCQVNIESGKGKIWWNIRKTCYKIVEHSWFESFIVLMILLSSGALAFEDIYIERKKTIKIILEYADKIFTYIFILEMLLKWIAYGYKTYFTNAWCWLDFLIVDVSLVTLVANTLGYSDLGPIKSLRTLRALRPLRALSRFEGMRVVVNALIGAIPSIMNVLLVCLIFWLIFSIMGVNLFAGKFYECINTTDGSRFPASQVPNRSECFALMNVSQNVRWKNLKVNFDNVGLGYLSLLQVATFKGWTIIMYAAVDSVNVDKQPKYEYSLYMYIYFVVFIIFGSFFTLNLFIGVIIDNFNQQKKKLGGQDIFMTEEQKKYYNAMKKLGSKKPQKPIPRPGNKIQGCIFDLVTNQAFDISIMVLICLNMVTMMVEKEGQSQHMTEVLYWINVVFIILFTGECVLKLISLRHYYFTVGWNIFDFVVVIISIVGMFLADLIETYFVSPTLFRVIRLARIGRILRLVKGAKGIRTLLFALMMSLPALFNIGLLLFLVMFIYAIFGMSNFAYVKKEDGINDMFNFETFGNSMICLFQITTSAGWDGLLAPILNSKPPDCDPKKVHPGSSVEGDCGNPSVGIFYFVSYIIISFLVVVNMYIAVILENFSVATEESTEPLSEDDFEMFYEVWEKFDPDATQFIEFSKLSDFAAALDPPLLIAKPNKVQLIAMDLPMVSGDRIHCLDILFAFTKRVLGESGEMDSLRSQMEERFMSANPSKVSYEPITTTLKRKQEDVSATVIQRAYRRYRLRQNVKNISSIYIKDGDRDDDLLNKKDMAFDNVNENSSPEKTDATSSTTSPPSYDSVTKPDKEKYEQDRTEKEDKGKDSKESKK
Chain of NaV1.5 (P15389 whole entry, looked up): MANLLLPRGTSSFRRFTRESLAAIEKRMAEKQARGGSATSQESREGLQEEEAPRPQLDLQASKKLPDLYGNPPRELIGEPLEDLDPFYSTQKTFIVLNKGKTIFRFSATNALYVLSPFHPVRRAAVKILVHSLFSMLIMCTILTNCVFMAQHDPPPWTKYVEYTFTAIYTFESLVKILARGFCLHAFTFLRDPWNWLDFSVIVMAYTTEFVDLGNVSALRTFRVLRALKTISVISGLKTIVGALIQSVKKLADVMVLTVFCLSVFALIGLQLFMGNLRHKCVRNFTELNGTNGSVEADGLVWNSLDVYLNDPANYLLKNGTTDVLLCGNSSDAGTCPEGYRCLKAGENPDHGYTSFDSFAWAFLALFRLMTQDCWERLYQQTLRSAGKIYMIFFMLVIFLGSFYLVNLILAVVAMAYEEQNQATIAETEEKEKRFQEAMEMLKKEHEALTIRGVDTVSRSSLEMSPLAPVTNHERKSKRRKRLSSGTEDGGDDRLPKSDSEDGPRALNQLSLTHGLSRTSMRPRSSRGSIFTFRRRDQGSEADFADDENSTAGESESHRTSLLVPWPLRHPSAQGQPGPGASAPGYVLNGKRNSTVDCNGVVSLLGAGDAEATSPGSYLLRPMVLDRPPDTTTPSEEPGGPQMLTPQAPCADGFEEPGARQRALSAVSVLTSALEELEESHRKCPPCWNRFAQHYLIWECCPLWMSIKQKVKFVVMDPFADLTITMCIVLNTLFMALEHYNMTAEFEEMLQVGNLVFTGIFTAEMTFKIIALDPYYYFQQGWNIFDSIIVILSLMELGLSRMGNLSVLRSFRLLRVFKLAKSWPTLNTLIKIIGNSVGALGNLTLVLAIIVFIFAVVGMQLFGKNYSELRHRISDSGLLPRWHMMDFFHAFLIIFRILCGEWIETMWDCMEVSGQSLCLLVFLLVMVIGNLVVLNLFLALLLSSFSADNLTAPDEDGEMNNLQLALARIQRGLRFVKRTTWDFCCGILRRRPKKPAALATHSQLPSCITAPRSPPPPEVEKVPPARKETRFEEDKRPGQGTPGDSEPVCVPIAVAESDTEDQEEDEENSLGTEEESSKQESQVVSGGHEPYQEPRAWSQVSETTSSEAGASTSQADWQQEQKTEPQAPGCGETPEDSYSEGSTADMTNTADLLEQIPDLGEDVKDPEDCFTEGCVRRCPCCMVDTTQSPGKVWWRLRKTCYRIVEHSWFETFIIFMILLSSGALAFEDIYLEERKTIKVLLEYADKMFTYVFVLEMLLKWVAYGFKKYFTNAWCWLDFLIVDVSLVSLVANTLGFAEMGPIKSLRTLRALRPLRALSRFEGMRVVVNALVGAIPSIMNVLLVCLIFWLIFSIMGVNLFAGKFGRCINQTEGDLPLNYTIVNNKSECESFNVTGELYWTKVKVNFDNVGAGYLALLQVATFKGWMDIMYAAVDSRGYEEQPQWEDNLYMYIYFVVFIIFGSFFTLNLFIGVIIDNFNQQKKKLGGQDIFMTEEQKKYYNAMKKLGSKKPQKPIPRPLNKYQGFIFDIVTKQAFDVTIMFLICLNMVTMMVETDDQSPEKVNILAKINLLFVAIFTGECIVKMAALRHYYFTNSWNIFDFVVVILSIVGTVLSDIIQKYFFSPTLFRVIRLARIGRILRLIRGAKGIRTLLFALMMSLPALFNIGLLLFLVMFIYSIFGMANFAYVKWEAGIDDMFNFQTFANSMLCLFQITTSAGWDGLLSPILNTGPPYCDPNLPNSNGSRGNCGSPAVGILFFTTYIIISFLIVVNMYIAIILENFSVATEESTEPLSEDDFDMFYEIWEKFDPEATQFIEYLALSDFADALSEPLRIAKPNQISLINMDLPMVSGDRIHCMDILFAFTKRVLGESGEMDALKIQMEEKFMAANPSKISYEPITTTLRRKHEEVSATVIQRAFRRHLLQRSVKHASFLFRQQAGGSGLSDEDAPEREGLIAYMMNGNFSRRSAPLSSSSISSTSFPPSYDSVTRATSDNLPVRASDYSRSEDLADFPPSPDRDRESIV

As to `Cc1cccc(C)c1OCC(C)N` (centres unmarked) [Mexiletine, mexiletine], in series [1], the “Significant Reversal of Edema” value is listed as “Yes”, the “Significant Reversal of Flinching” value was “Yes” and the “Significant Reversal of Lifting” value is “Yes”. The “veratridine-induced lifting and flinching behaviors” value in series [1] (po) is “prevented in a dose-dependent manner”. Besides, in the series with male mice (CD1 strain), the “effects of veratridine (lifting)” value is on record as “blocked”, the “lifting/licking response to deltamethrin” value was “prevented the lifting/licking response” and the “lifting/licking response to grayanotoxin III” value is on record as “prevented the lifting/licking response”.

For `CC1(C)[C@H](C(=O)O[C@H](C#N)c2cccc(Oc3ccccc3)c2)[C@@H]1C=C(Br)Br` [deltamethrin], the “response to injected sodium channel modulator” value with male mice (CD1 strain) was “produced a lifting/licking response”.

As to `NC1=N[C@H](O)[C@H]2[C@H]3O[C@]4(O)O[C@@H]([C@@H](O)[C@@]2(N1)[C@@H]4O)[C@]3(O)CO` [TTX, tetrodotoxin], the “block by TTX” value at NaV1.9, at NaV1.8 and at NaV1.5 was “resistant to block” throughout.

For `CC1(O)CC23CC(O)C4(O)C(CC(O)C4(C)C)C(C)(O)C2CCC1C3O` (centres unmarked) [grayanotoxin III], at hNaV1.7, the “inactivation during the test pulse” value was “did not inactivate” and the “voltage at which sodium currents start to be activated” value is on record as −95 mV. Also, in the series with male mice (CD1 strain), the “response to injected sodium channel modulator” value is “produced a lifting/licking response”.

For `CN1C(=O)CN=C(c2ccccc2)c2cc(Cl)ccc21` [Diazepam], in series [1], the “Significant Reversal of Edema” value is listed as “No”; the “Significant Reversal of Flinching” value is given as “No”; the “Significant Reversal of Lifting” value is “No”; the “sodium channel activator-induced pain-like behaviors (licking, flinching)” value is reported as “ineffective”.

Turning to `CN1CC[C@]23c4c5ccc(O)c4O[C@H]2[C@@H](O)C=C[C@H]3[C@H]1C5` [Morphine, morphine], the “Significant Reversal of Edema” value in series [1] is on record as “No”.

With `COc1ccc(C(=O)O[C@H]2CC[C@@]3(C)[C@@H]4CC[C@H]5[C@]6(O)C[C@H](O)[C@@]7(O)[C@@H](CN8C[C@@H](C)CC[C@H]8[C@@]7(C)O)[C@]6(O)C[C@@]53O[C@]24O)cc1OC` [veratridine, 4α,9-Epoxy-3β-veratroyloxy-5β-cevan-4β,12,14,16β,17,20-hexaol], in series [1], the “pain-related behaviors caused by veratridine injected into the paw” value is listed as “caused two separate pain-related behaviors” and the “side effects of veratridine” value is recorded as “variable neurological side effects”. In addition, the “lifting behavior caused by veratridine” value in the series on male mice (CD1 strain) was “caused equivalent lifting behavior”.

As for `CNCC[C@H](Oc1cccc2ccccc12)c1cccs1` [Duloxetine, duloxetine], in series [1], the “Significant Reversal of Edema” value was “No” and the “sodium channel activator-induced pain-like behaviors (licking, flinching)” value is “inhibited somewhat”.

Take `COc1ccc2cc([C@H](C)C(=O)O)ccc2c1` [Naproxen, naproxen]: the “Significant Reversal of Edema” value in series [1] was “No”.

Turning to `NCC1(CC(=O)O)CCCCC1` [Gabapentin, gabapentin], the “Significant Reversal of Edema” value in series [1] was “No”.

Source of the values: patent US20120185956A1, “GLOBAL NAV1.7 KNOCKOUT MICE AND USES” (priority 2011, published 2012).
